According to patent US4479951A, “1.4;3.6-Dianhydrohexitol nitrates substituted by purine bases, processes for their preparation and pharmaceutical compositions” (Dr. Willmar Schwabe GmbH & Co., priority 1980, dated 1984):

Tested on: mongrel dogs
Test: circulatory-pharmacological effectiveness on the narcotised dog, intravenous administration
Assay type: in vivo

Compound: Nc1ncnc2c1ncn2[C@H]1CO[C@H]2[C@@H]1OC[C@@H]2O[N+](=O)[O-] [1c/2c, 5-(9-Adenyl)-5-desoxy-1.4;3.6-dianhydro-L-iditol 2-nitrate]
- APdiast: diastolic aorta pressure (2 min after i.v. 1 mg/kg): 74.1 mm.Hg
- APsyst: systolic aorta pressure (2 min after i.v. 1 mg/kg): 115.3 mm.Hg
- BFFem: blood flow in the A. femoralis, referred to 20 kg. body weight (2 min after i.v. 1 mg/kg): 35.3 mL/min
- HF: heart frequency (2 min after i.v. 1 mg/kg): 158.7 min⁻¹
- HLL: heart capacity left, referred to 20 kg. body weight (2 min after i.v. 1 mg/kg): 0.75 W
- HLR: heart capacity right, referred to 20 kg. body weight (2 min after i.v. 1 mg/kg): 115.8 mW
- HZV: heart minute volume, referred to 20 kg. body weight (2 min after i.v. 1 mg/kg): 3.91 L/min
- LVEDP: end diastolic pressure in the left ventricle (2 min after i.v. 1 mg/kg): 2.62 mm.Hg
- PAP: average pressure in the A. pulmonalis (2 min after i.v. 1 mg/kg): 15.6 ±2.1 mm.Hg
- PRA: pressure in the right atrium (2 min after i.v. 1 mg/kg): 2.06 mm.Hg
- SV: beat volume, referred to 20 kg. body weight (2 min after i.v. 1 mg/kg): 25.6 mL
- WAP: pulmonalis resistance, referred to 20 kg. body weight (2 min after i.v. 1 mg/kg): 0.45 U
- WFem: femoralis resistance, referred to 20 kg. body weight (2 min after i.v. 1 mg/kg): 0.35 KU
- WTP: total peripheral resistance, referred to 20 kg. body weight (2 min after i.v. 1 mg/kg): 2.93 U
- dp/dt: rate of pressure increase in the left ventricle (2 min after i.v. 1 mg/kg): 2606.2 mm.Hg/sec.
- APdiast: diastolic aorta pressure (5 min after i.v. 1 mg/kg): 82.5 mm.Hg
- APsyst: systolic aorta pressure (5 min after i.v. 1 mg/kg): 120.9 mm.Hg
- BFFem: blood flow in the A. femoralis, referred to 20 kg. body weight (5 min after i.v. 1 mg/kg): 36.6 mL/min
- HF: heart frequency (5 min after i.v. 1 mg/kg): 148.7 min⁻¹
- HLL: heart capacity left, referred to 20 kg. body weight (5 min after i.v. 1 mg/kg): 0.74 W
- HLR: heart capacity right, referred to 20 kg. body weight (5 min after i.v. 1 mg/kg): 87.6 mW
- HZV: heart minute volume, referred to 20 kg. body weight (5 min after i.v. 1 mg/kg): 3.61 L/min
- LVEDP: end diastolic pressure in the left ventricle (5 min after i.v. 1 mg/kg): 2.91 mm.Hg
- PAP: average pressure in the A. pulmonalis (5 min after i.v. 1 mg/kg): 13.7 ±1.4 mm.Hg
- PRA: pressure in the right atrium (5 min after i.v. 1 mg/kg): 2.81 mm.Hg
- SV: beat volume, referred to 20 kg. body weight (5 min after i.v. 1 mg/kg): 26.0 mL
- WAP: pulmonalis resistance, referred to 20 kg. body weight (5 min after i.v. 1 mg/kg): 0.40 U
- WFem: femoralis resistance, referred to 20 kg. body weight (5 min after i.v. 1 mg/kg): 0.36 KU
- WTP: total peripheral resistance, referred to 20 kg. body weight (5 min after i.v. 1 mg/kg): 3.42 U
- dp/dt: rate of pressure increase in the left ventricle (5 min after i.v. 1 mg/kg): 2343.7 mm.Hg/sec.
- APdiast: diastolic aorta pressure (7 min after i.v. 1 mg/kg): 83.4 mm.Hg
- APsyst: systolic aorta pressure (7 min after i.v. 1 mg/kg): 121.9 mm.Hg
- BFFem: blood flow in the A. femoralis, referred to 20 kg. body weight (7 min after i.v. 1 mg/kg): 38.6 mL/min
- HF: heart frequency (7 min after i.v. 1 mg/kg): 146.7 min⁻¹
- HLL: heart capacity left, referred to 20 kg. body weight (7 min after i.v. 1 mg/kg): 0.72 W
- HLR: heart capacity right, referred to 20 kg. body weight (7 min after i.v. 1 mg/kg): 89.3 mW
- HZV: heart minute volume, referred to 20 kg. body weight (7 min after i.v. 1 mg/kg): 3.51 L/min
- LVEDP: end diastolic pressure in the left ventricle (7 min after i.v. 1 mg/kg): 2.91 mm.Hg
- PAP: average pressure in the A. pulmonalis (7 min after i.v. 1 mg/kg): 14.1 ±1.6 mm.Hg
- PRA: pressure in the right atrium (7 min after i.v. 1 mg/kg): 2.81 mm.Hg
- SV: beat volume, referred to 20 kg. body weight (7 min after i.v. 1 mg/kg): 25.6 mL
- WAP: pulmonalis resistance, referred to 20 kg. body weight (7 min after i.v. 1 mg/kg): 0.42 U
- WFem: femoralis resistance, referred to 20 kg. body weight (7 min after i.v. 1 mg/kg): 0.34 KU
- WTP: total peripheral resistance, referred to 20 kg. body weight (7 min after i.v. 1 mg/kg): 3.59 U
- dp/dt: rate of pressure increase in the left ventricle (7 min after i.v. 1 mg/kg): 2362.5 mm.Hg/sec.
- APdiast: diastolic aorta pressure (10 min after i.v. 1 mg/kg): 83.4 mm.Hg
- APsyst: systolic aorta pressure (10 min after i.v. 1 mg/kg): 120.9 mm.Hg
- BFFem: blood flow in the A. femoralis, referred to 20 kg. body weight (10 min after i.v. 1 mg/kg): 39.5 mL/min
- HF: heart frequency (10 min after i.v. 1 mg/kg): 141.2 min⁻¹
- HLL: heart capacity left, referred to 20 kg. body weight (10 min after i.v. 1 mg/kg): 0.72 W
- HLR: heart capacity right, referred to 20 kg. body weight (10 min after i.v. 1 mg/kg): 88.8 mW
- HZV: heart minute volume, referred to 20 kg. body weight (10 min after i.v. 1 mg/kg): 3.5 L/min
- LVEDP: end diastolic pressure in the left ventricle (10 min after i.v. 1 mg/kg): 3.20 mm.Hg
- PAP: average pressure in the A. pulmonalis (10 min after i.v. 1 mg/kg): 14.2 ±1.6 mm.Hg
- PRA: pressure in the right atrium (10 min after i.v. 1 mg/kg): 2.95 mm.Hg
- SV: beat volume, referred to 20 kg. body weight (10 min after i.v. 1 mg/kg): 26.4 mL
- WAP: pulmonalis resistance, referred to 20 kg. body weight (10 min after i.v. 1 mg/kg): 0.42 U
- WFem: femoralis resistance, referred to 20 kg. body weight (10 min after i.v. 1 mg/kg): 0.33 KU
- WTP: total peripheral resistance, referred to 20 kg. body weight (10 min after i.v. 1 mg/kg): 3.57 U
- dp/dt: rate of pressure increase in the left ventricle (10 min after i.v. 1 mg/kg): 2268.7 mm.Hg/sec.
